Test results: publication PMC6572618, “Anti-Trypanosomal and Antimalarial Properties of Tetralone Derivatives and Structurally Related Benzocycloalkanones” (Medicina, 2019)
Several values for one entry are separate records, joined by “and”; a condition that tells them apart may be missing. Equal entries are not always repeated.

What was measured:
Format in all cases: cell-based
[1] = test system: 427 Trypanosoma brucei brucei trypomastigotes; experiment: In vitro anti-trypanosomal assay (resazurin); conditions: 48 h; for % Viability at 20 µM (SD) T.b. brucei: 20 µM compound, % parasite viability relative to untreated control
Description: The activity of the compounds against 427 Trypanosoma brucei brucei trypomastigotes was determined as previously described. Briefly, parasites were incubated in 96-well plates with 20 µM or three-fold serial dilutions (100 µM starting concentration) of test compounds in Iscove’s modified Dulbecco’s medium (IMDM) (Lonza, Basel, Switzerland) supplemented with 10% fetal calf serum, HMI-9 supplement, hypoxanthine, and penicillin/streptomycin at 37 °C in a 5% CO2 incubator. After 48 h, 20 µL of resazurin reagent (0.135 mg/mL resazurin in phosphate-buffered saline) was added to each well and the fluorescence (Ex560/Em590) read after 2–4 h in a Spectramax M3 plate reader (Molecular Devices, San Jose, CA, USA). The fluorescence readings were used to calculate % parasite viability relative to the readings obtained from the wells containing untreated control parasite cultures. The IC50 values were determined by plotting % viability vs. log(compound) and performing a non-linear regression using a GraphPad Prism (v. 5.02) (San Diego, CA, USA).
(§1) Thirty-five tetralone derivatives (see Figure 2) and six related benzocycloalkanones (see Figure 3) were evaluated in vitro against T. b. brucei for antitrypanosomal activity through the resazurin assay protocol. The compounds were also evaluated against the chloroquine-sensitive strain (3D7) of P. falciparum for antimalarial activity using pLDH assay and against the HeLa cell line for cytotoxicity evaluation using the resazurin assay protocol.

[2] = test system: chloroquine sensitive strain of P. falciparum (3D7); experiment: In vitro antiplasmodial assay (parasite lactate dehydrogenase, pLDH)
Description: An antimalarial evaluation was performed against the chloroquine sensitive strain of P. falciparum (3D7) using the parasite lactate dehydrogenase (pLDH) assay as previously reported. Parasites were seeded at 2% parasitemia and 1% hematocrit in 96 well plates and were incubated with 20 µM of the test compounds for 48 h in culture medium consisting of Rosell Park Memorial Institute (RPMI 1640; Lonza, Basel, Switzerland) containing 25 mM 4-(2-hydroxyethyl)-1-piperazineethanesulfonic acid (HEPES), supplemented with 0.5% (w/v) Albumax II, 22 mM glucose, 0.65 mM hypoxanthine, 0.05mg/mL gentamicin, and 1% (v/v) human erythrocytes, at 37 °C under an atmosphere of 5% CO2, 5% O2, and 90% N2. The parasite lactate dehydrogenase activity in the wells was determined using the colorimetric assay method of Makler et al.. The absorbance readings were converted to % parasite viability relative to the wells containing untreated parasites.
as §1

[3] = test system: HeLa cells; experiment: In vitro cytotoxicity assay (resazurin)
Description: As previously described, HeLa cells (Cellonex, Johannesburg, South Africa) were seeded in 96-well plates at a density of 2 × 10^4 cells/well in Dulbecco’s modified Eagle’s medium (DMEM) (Lonza, Basel, Switzerland) supplemented with 10% fetal calf serum and antibiotics (penicillin/streptomycin/amphotericin B) and incubated overnight at 37 °C in a 5% CO2 incubator. Compounds were added to the cells at a final concentration of 20 µM, and incubation continued for 24 h. The cell viability in the wells was assessed by adding 20 µL of resazurin reagent (0.135 mg/mL resazurin in phosphate-buffered saline) and reading the fluorescence (Ex560/Em590) after an additional 2–4 h incubation. The fluorescence readings were converted to % cell viability relative to the average readings obtained from the untreated control wells.
as §1

[4] = 20 µM compound, 24 h, % cell viability relative to untreated control

Row | SMILES | % Viability at 20 µM (SD) T.b. brucei [1] | % Viability at 20 µM (SD) 3D7 ([2]; 20 µM) | % Viability at 20 µM (SD) HeLa Cell [3, 4] | % Viability at 20 µM (SD) 3D7 ([2]; 20 µM compound, 48 h, P. falciparum 3D7, % parasite viability relative to untreated parasites) | % Viability at 20 µM (SD) HeLa Cell ([3]; 20 µM) | % Viability at 20 µM (SD) T.b. brucei ([1]; 20 µM) | IC50 ([1]; Trypanosoma brucei, three-fold serial dilutions from 100 µM, read-out: IC50 (µM) T. b. brucei) [µM]
1 | N#Cc1cccc(/C=C2\CCc3ccc(N)cc3C2=O)c1 [Compound 2] | 95 (3) % | 110 (1) % | 77 (2) % |  |  |  | 
2 | O=C1/C(=C/c2ccccc2)CCc2ccccc21 [Compound 3] | 43 (3) % |  |  | 103 (2) % | 116 (5) % |  | 
3 | O=C1/C(=C/c2ccc(F)cc2)CCc2ccccc21 [Compound 5] |  | 107 (5) % | 100 (2) % |  |  |  | 
4 | O=C1/C(=C/c2ccccc2)CCc2c(O)cccc21 [Compound 8] | 0.5 (0.1) % |  | 35 (1) % |  |  |  | 
5 | O=C1/C(=C/c2ccccc2)CCc2ccc(O)cc21 [Compound 9] | −4 (0.3) % | 101 (4) % | 9 (0.1) % |  |  |  | 
6 | Nc1ccc2c(c1)CC/C(=C\c1ccccc1)C2=O [Compound 11] |  | 111 (1) % | 86 (9) % |  |  | 95% and 97 (0.3) % | 
7 | O=C1/C(=C/c2cccc(F)c2)CCc2ccc(O)cc21 [Compound 13] | −0.9 (0.1) % | 13 (1) % | 21 (1) % |  |  |  | 
8 | O=C1/C(=C/c2ccc(Cl)cc2)CCc2ccc(O)cc21 [Compound 14] | 0.1 (0.1) % |  | 27 (2) % |  |  |  | 
9 | O=C1/C(=C/c2cccc(Cl)c2)CCc2ccc(O)cc21 [Compound 15] | 0.6 (0.01) % | −3 (6) % | 18 (0.4) % |  |  |  | 
10 | O=C1/C(=C/c2cccc(Cl)c2)CCc2ccccc21 [Compound 17] | 0.2 (0.3) % | 100 (9) % | 41 (13) % |  |  |  | 
11 | O=C1/C(=C/c2cccc(Br)c2)CCc2ccc(O)cc21 [Compound 18] | 1.2 (0.31) % | 99 (8) % | 26 (3) % |  |  |  | 
12 | O=C1/C(=C/c2ccc(O)cc2)CCc2ccc(O)cc21 [Compound 19] | 1 (0.2) % | 104 (12) % | 44 (4) % |  |  |  | 
13 | CN(C)c1ccc(/C=C2\CCc3ccc(O)cc3C2=O)cc1 [Compound 21] | 25 (2) % | 142 (9) % | 51 (4) % |  |  |  | 
14 | O=C1/C(=C/c2ccc(Cl)c(Cl)c2)CCc2ccc(O)cc21 [Compound 22] | 0.9 (0.2) % | 81 (1) % | 5 (0.9) % |  |  |  | 
15 | COc1ccc(/C=C2\CCc3ccc(O)cc3C2=O)cc1 [Compound 23] | 0.2 (0.1) % | 88 (10) % | 25 (2) % |  |  |  | 
16 | O=C1/C(=C/c2ccc(Cl)cc2)CCc2ccccc21 [Compound 24] | 26 (8) % | 100 (8) % | 100 (3) % |  |  |  | 
17 | COc1ccc2c(c1)C(=O)/C(=C/c1cccnc1)CC2 [Compound 31] |  | 85 (12) % | 17 (4) % |  |  |  | 
18 | N=C(N)c1ccc(OCCCCCOc2ccc(C(=N)N)cc2)cc1 [PE, pentamidine, reference compound] |  |  |  |  |  |  | 0.0042
